# Data reported in patent US6482799B1, “Self-preserving multipurpose ophthalmic solutions incorporating a polypeptide antimicrobial” (The Regents of the University of California, priority 1999, dated 2002).
# Assays:
# [1] = test system: Pseudomonas aeruginosa (ATCC 27853); assay: Protocol 1 kill curve / MIC, 1 hour at 37° C. in glass tubes; format: cell-based
# Protocol: (§1) This protocol is used to develop dose-response (kill) curves to calculate the minimal inhibitory concentration of an indolicidin (e.g., L-indolicidin (L-IND)) when formulated in a commercially available phosphate buffered saline (PBS) solution. In addition, for comparative purposes, kill curves are established for the following three commonly available commercial lens-care products containing different preservatives:
# An initial dose range experiment is performed to determine a suitable dose range for the final experiment. The indolicidin (e.g., L-IND) is tested in the preliminary toxicity experiment at 13 different dose levels in a range between 500 μg/ml and 0.125 μg/ml. The 3 control samples with preservatives are tested at 13 different dose levels with the highest dose level representing the undiluted solution. […]
# (§2) Viable counts of the bacteria are performed by 10-fold serial dilutions in sterile PBS and by plating 0.1 ml aliquots on nutrient agar plates. […] The plates are incubated overnight at 37° C. and colonies are counted and recorded. […]
# (§3) Survival is expressed as number of surviving bacteria (CFU/ml) for each dilution of the test article and control solutions. The lowest dose of the test article that results in complete kill of the test organism, compared to the non-exposed control, is determined to be the MIC value. […]
# S. aureus (ATCC 6538) = assay: Protocol 1 kill curve / MIC, 1 hour at 37° C.; format: cell-based, Staphylococcus aureus; conditions: 10 mM sodium phosphate buffer
# Protocol: as §1
# The stock solutions are diluted in a 2-fold fashion by transferring 1 ml of each stock solution to 1 ml of appropriate diluent in sterile glass tubes (100×13 mm). Twelve additional 2-fold dilutions are made by transferring 1 ml aliquots of each dilution to 1 ml diluent. The diluent for all commercial lens-care products is PBS. […]
# as §2, §3
# [2] = Toxicity study, intraperitoneal administration
# Protocol: The objective of this study was to determine if the treatment regimen proposed for the efficacy study of the defensin formulations caused target organ toxicity. This study is not intended to support application for research or marketing permits for products regulated by governmental agencies. The purpose of this study is to provide range-finding data is therefore, not within the scope of Good Laboratory Practice Guidelines.
# Mice were treated by intravaginal administration twice daily at ˜12 hour intervals administered on Days 1 through 4. Mice were treated intraperitoneally three times on Day 1 at ˜4 hour intervals, and twice daily at ˜12 hour intervals administered on days 2 through 4.
# Dosing volumes were 0.1 mL/mouse (intravaginal), 0.1 mL/mouse (intraperitoneal), and 20 μL/rabbit. The study lasted 5 days, with day 1 the first day of dose administration.
# The dose formulations were supplied in pyrogen-free saline.
smiles,measurement,setting,value
"CC[C@H](C)[C@H](N)C(=O)N[C@@H](CC(C)C)C(=O)N1CCC[C@H]1C(=O)N[C@@H](Cc1c[nH]c2ccccc12)C(=O)N[C@@H](CCCCN)C(=O)N[C@@H](Cc1c[nH]c2ccccc12)C(=O)N1CCC[C@H]1C(=O)N[C@@H](Cc1c[nH]c2ccccc12)C(=O)N[C@@H](Cc1c[nH]c2ccccc12)C(=O)N1CCC[C@H]1C(=O)N[C@@H](Cc1c[nH]c2ccccc12)C(=O)N[C@@H](CCCNC(=N)N)C(=O)N[C@@H](CCCNC(=N)N)C(N)=O [L-indolicidin, H2N-ILPWKWPWWPWRR-CONH2]",survival,"[1]; all dose levels 100-6.25 μg/ml, 10 mM phosphate buffer pH 7.4, 2.01×10^5 CFU/ml",100%
same,survival,"[1]; all dose levels 5,000-1.25 μg/ml in PBS, 1 hour 37° C., 5.9×10^5 CFU/ml",100%
same,log kill,S. aureus (ATCC 6538); 6.25 μg/ml,~3 log
same,survival,"S. aureus (ATCC 6538); 100, 50, 25 and 12.5 μg/ml, 4.1×10^5 CFU/ml",no detectable survival
same,gross alterations,"[2]; 0.1 mL/mouse at 10, 100 or 1000 μg/mL, BPN-A-amide at 30, 300 or 3000 μg/mL",no gross alternations
same,deaths or clinical signs of toxicity,"[2]; L-indolicidin 10, 100 or 1000 μg/mL, D-indolicidin 10 or 1000 μ/mL, All-Phe-indolicidin 10 μg/mL, BPN-A-amide 30, 300 or 3000 μg/mL",no deaths or biologically significant clinical signs of toxicity
